Assay results: patent US20260193173A1, “AMINO ACID-BENZOIC ACID OLIGOMERS AND METHODS OF USE THEREOF FOR TREATING CANCER” (Board of Regents, The University of Texas System, priority 2022, published 2026)
pIC50: −log10 of the molar value.

Legend:
Bcl-2 = Bcl-2 (Homo sapiens, UniProt P10415); assay: Bcl-2 protein binding, fluorescence polarization assay
Text: IC50 values were in the submicromolar range as determined by fluorescence polarization assay.

[1] = test system: DU145 prostate cancer cells; assay: MTT assay, growth inhibition of prostate cancer cell line DU145; assay type: cell-based; conditions: Homo sapiens, DU-145, incubated with DU145 cells for 72 hours
Method: FIGS. 3A-3C show % inhibition (determined by MTT assay) of disclosed compounds on prostate cancer cell line DU145. Compounds were incubated with DU145 cells for 72 hours, showing strong cell growth inhibition with IC50 of 0.15-0.7 μM.

Sequence of Bcl-2 (P10415 whole entry): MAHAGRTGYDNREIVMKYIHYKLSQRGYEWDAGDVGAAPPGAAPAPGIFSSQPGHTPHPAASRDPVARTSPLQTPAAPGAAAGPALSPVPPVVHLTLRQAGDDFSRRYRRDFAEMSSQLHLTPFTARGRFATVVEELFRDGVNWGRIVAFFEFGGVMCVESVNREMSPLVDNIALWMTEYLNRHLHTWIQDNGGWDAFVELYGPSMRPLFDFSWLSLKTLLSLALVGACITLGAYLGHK

Row | pIC50 (Bcl-2) | pIC50 [1] | SMILES
1 | 5.81 | 6.52 | CCC(C)C(NC(=O)c1ccc(NC(=O)C(NC(=O)c2ccc(N)c(OC)c2)C(C)CC)c(OCC(C)C)c1)C(=O)Nc1ccc(C(N)=O)cc1OCc1ccccc1 (centres unmarked) [Compound B9]
2 | 5.71 | 6.11 | CCC(C)C(NC(=O)c1ccc(N)c(OC)c1)C(=O)Nc1ccc(C(=O)NC(CCSC)C(=O)Nc2ccc(C(N)=O)cc2OCC(C)C)cc1OCC(C)C (centres unmarked) [Compound B10]
3 | 5.97 | 6.92 | CC(C)COc1cc(C(=O)NC(CS)C(=O)Nc2ccc(C(=O)NC(Cc3ccccc3)C(=O)Nc3ccc(C(N)=O)cc3OCC(C)C)cc2OCC(C)C)ccc1N (centres unmarked) [Compound B11]
4 | 6.22 | 6.15 | COc1cc(C(=O)NC(Cc2ccc(O)cc2)C(=O)Nc2ccc(C(=O)NC(CCSC)C(=O)Nc3ccc(C(N)=O)cc3OCc3ccccc3)cc2OCC(C)C)ccc1N (centres unmarked) [Compound B12]
